This passage reports IC50 and melting point results from paper PMC7504466, “In-Vitro and In-Silico Evaluations of Heterocyclic-Containing Diarylpentanoids as Bcl-2 Inhibitors Against LoVo Colorectal Cancer Cells” (Molecules, 2020).

By IC50 is commonly meant the concentration at which inhibition is half-maximal. In general, melting point refers to the temperature of the solid-liquid transition.

The structures appear in SMILES notation.

One data set has as its system LS411N cells. In words: MTT cytotoxicity assay, LS411N cells. Conditions: Homo sapiens, LS-411N, 72 h post-treatment, read-out: IC50 (µM) BRAF LS411N. It is filed as cell-based. The method, then:
(§1) The in-vitro cytotoxic activity of the synthesized compounds on seven human CRC cell lines including KRAS (T84, SW620, LoVo) and BRAF (HT29, NCI-H508, RKO and LS411N) mutated cells were determined by MTT assay as previously described. The IC50 values obtained are summarized in Table 2 in which 5-FU and normal human dermal fibroblasts (NHDF) were used as controls. Meanwhile, a heatmap (Figure 3) was also generated using GraphPad Prism v7.0 (GraphPad Software, La Jolla, CA, USA) to visualize the cytotoxic trends of synthesized compounds graphically.
(§2) A panel of KRAS (T84, SW620 and LoVo) and BRAF (HT29, NCI-H508, RKO and LS411N) mutated human CRC cell lines were grown in Dulbecco’s modified Eagle’s medium (DMEM) containing 10% fetal bovine serum (FBS) and 1% penicillin/streptomycin at 37 °C under 5% CO2 while NHDF cells were cultured in DMEM with 5% FBS under the same condition. The culture medium was replenished every two days until the cells reached 80–90% confluency for further usage. All cell lines (T84, ATCC®CCL-248™; SW620, ATCC®CCL-227™; LoVo, ATCC®CCL-229™; HT-29, ATCC®HTB-38; NCI-H508, ATCC®CCL-253™; RKO, ATCC®CRL-2577; LS411N, ATCC®CRL-2159; NHDF, ATCC® PCS-201-010™) were purchased from American Type culture Collections (ATCC, Manassas, VA, USA).
(§3) LoVo cells (1.5–5 × 10^3 cells/well) were seeded into a 96 well plate and incubated at 37 °C and 5% CO2 atmosphere for 24 h. On the following day, the cell media were replaced with 100 µL of test compounds at various concentration. The final concentration of DMSO in the well is 0.1%. After 72 h of incubation, culture medium was removed and 100 µL of MTT (thiazoyl blue tertrazolium bromide) solution (0.5 mg/mL in culture media) was added. The resultant plates were then further incubated at 37 °C for 4 h. Upon completion, the MTT solution was removed and the formazan salts formed were dissolved in 100 µL of DMSO. The absorbance was recorded with a microplate reader at 570 nm. The IC50 values of tested compounds were calculated from three independent experiments.
(In general: Tetrazolium assays rely on reduction of a dye to a coloured formazan, in cell work by metabolically active cells.)

A further data set has as its system RKO cells. Briefly: MTT cytotoxicity assay, RKO cells. It counts as cell-based. As to conditions: Homo sapiens, 72 h post-treatment, read-out: IC50 (µM) BRAF RKO. The method, then:
as §1, §2, §3

In a further data set the test system is SW620 cells. Briefly: MTT cytotoxicity assay, SW620 cells. It counts as cell-based. As to conditions: Homo sapiens, SW-620, 72 h post-treatment, read-out: IC50 (µM) KRAS SW620. The method, then: as §1, §2, §3
The test system of data set [1] is normal human dermal fibroblasts (NHDF). In words: MTT cytotoxicity assay, normal human dermal fibroblasts. Conditions: 72 h post-treatment. It counts as cell-based. The method, then:
as §1, §2, §3

The next data set has as its system LoVo cells. In words: MTT cytotoxicity assay, LoVo cells. It is filed as cell-based. Conditions: Homo sapiens, 72 h post-treatment, read-out: IC50 (µM) KRAS LoVo. The method, then:
as §1, §2, §3

The test system of another data set is NCI-H508 cells. Briefly: MTT cytotoxicity assay, NCI-H508 cells. It counts as cell-based. Conditions: Homo sapiens, 72 h post-treatment, read-out: IC50 (µM) BRAF NCI-H508. The protocol: as §1, §2, §3
Another data set concerns T84 cells. Briefly: MTT cytotoxicity assay, T84 cells. It is filed as cell-based. As to conditions: Homo sapiens, 72 h post-treatment, read-out: IC50 (µM) KRAS T84. The protocol: as §1, §2, §3
Another data set has as its system HT29 cells. Briefly: MTT cytotoxicity assay, HT29 cells. As to conditions: Homo sapiens, HT-29, 72 h post-treatment, read-out: IC50 (µM) BRAF HT29. It is filed as cell-based. The method, then: as §1, §2, §3
In data set [2] the test system is human CRC cell lines (T84, SW620, LoVo, HT29, NCI-H508, RKO, LS411N). Briefly: MTT cytotoxicity assay, panel of KRAS- and BRAF-mutated CRC cell lines. As to conditions: several CRC cell lines, read-out: IC50 against several CRC cell lines. It counts as cell-based. The method, then: as §1
A panel of KRAS (T84, SW620 and LoVo) and BRAF (HT29, NCI-H508, RKO and LS411N) mutated human CRC cell lines were grown in Dulbecco’s modified Eagle’s medium (DMEM) containing 10% fetal bovine serum (FBS) and 1% penicillin/streptomycin at 37 °C under 5% CO2 while NHDF cells were cultured in DMEM with 5% FBS under the same condition. The culture medium was replenished every two days until the cells reached 80–90% confluency for further usage. […]
LoVo cells (1.5–5 × 10^3 cells/well) were seeded into a 96 well plate and incubated at 37 °C and 5% CO2 atmosphere for 24 h. […] The absorbance was recorded with a microplate reader at 570 nm. The IC50 values of tested compounds were calculated from three independent experiments.

As to `COc1ccccc1C=C1CCCC(=Cc2ccccc2OC)C1=O` [Compound 2a, 2,6-Bis(2-methoxybenzylidene)cyclohexanone], the concentration for half-maximal inhibition (IC50) in the data set with LS411N cells is over 10 µM; in the data set with RKO cells, over 10 µM; in the data set on SW620 cells, over 10 µM; in data set [1] it was over 20 µM; in the data set on LoVo cells, over 10 µM; in the data set on NCI-H508 cells, over 10 µM. For the same compound, the 50% inhibitory concentration (IC50) in the data set on T84 cells and in the data set on HT29 cells was over 10 µM each time.

`O=C1C(=Cc2ccccc2Br)CCCC1=Cc1ccccc1Br` [Compound 2b, 2,6-Bis(2-bromobenzylidene)cyclohexanone]: the IC50 in the data set with LS411N cells is over 10 µM; with RKO cells, over 10 µM; in the data set on SW620 cells, 8.9 µM; in data set [1], over 20 µM; in the data set on LoVo cells, over 10 µM; in the data set with NCI-H508 cells, 7.8 µM. For the same compound, the IC50 with T84 cells and in the data set with HT29 cells was over 10 µM each time.

The compound `O=C1C(=Cc2ccc(F)c(F)c2)CCCC1=Cc1ccc(F)c(F)c1` [Compound 2c, 2,6-Bis(3,4-difluorobenzylidene)cyclohexanone] had a melting point of 90 to 91 °C. The IC50 in the data set with LS411N cells amounted to 3.7 µM. The half-inhibitory concentration (IC50) in the data set on RKO cells worked out at 2.6 µM. In addition, the IC50 in the data set with SW620 cells is 3.2 µM. In data set [1], this compound showed an IC50 of 12.9 µM. For the same compound, in the data set with LoVo cells, the IC50 worked out at 3.3 µM. In addition, in the data set with NCI-H508 cells, the IC50 was 3.3 µM. For the same compound, the IC50 in the data set with T84 cells stood at 3.3 µM. For the same compound, in the data set with HT29 cells, the IC50 came to 5.4 µM.

The compound `COc1ccccc1C=C1CSCC(=Cc2ccccc2OC)C1=O` [Compound 2d, 3,5-Bis(2-methoxybenzylidene)tetrahydro-4H-thiopyran-4-one] displayed a melting point of 120 to 121 °C. The IC50 with LS411N cells amounted to 5.8 µM. In the data set on RKO cells, the IC50 was determined as 7.1 µM. Also, in the data set on SW620 cells, the half-maximal inhibitory concentration (IC50) is over 10 µM. Moreover, in data set [1], 9.7 µM corresponded to half-maximal inhibition (IC50). Besides, the IC50 with LoVo cells came out at 6.9 µM. Moreover, the IC50 in the data set with NCI-H508 cells came out at 5.3 µM. For the same compound, the IC50 with T84 cells is over 10 µM. In addition, the IC50 in the data set with HT29 cells was over 10 µM.

In the case of `O=C1C(=Cc2ccc(F)c(F)c2)CSCC1=Cc1ccc(F)c(F)c1` [Compound 2f, 3,5-Bis(3,4-difluorobenzylidene)tetrahydro-4H-thiopyran-4-one], the IC50 was 5.9 µM in the data set on LS411N cells; 2.4 µM with RKO cells; 2.9 µM in the data set with SW620 cells; 2 µM in [1]; 2.4 to 6.2 µM in data set [2]; 5.1 µM in the data set on LoVo cells. The IC50 was 6.2 µM in the data set on NCI-H508 cells, over 10 µM with T84 cells and over 10 µM in the data set with HT29 cells.

For `O=c1[nH]cc(F)c(=O)[nH]1` [Compound 5-FU, 5-fluorouracil, reference compound], the half-maximal inhibitory concentration (IC50) was 4.6 µM with LS411N cells; 2.9 µM in the data set on RKO cells; over 10 µM with SW620 cells; over 20 µM in data set [1]; 3.3 µM in the data set with LoVo cells; 8.6 µM in the data set with NCI-H508 cells. Moreover, the IC50 in the data set with T84 cells and with HT29 cells was over 10 µM each time.
